Laboratory results taken from patent US20200115353A1, “NEW COMPOUNDS INHIBITORS OF THE YAP/TAZ-TEAD INTERACTION AND THEIR USE IN THE TREATMENT OF MALIGNANT MESOTHELIOMA” (INVENTIVA, priority 2017, published 2020).

Tested on: NCI-H2052 mesothelioma cell line
Assay: Inhibition of malignant mesothelioma tumor cell growth (EdU proliferation)
Assay type: cell-based
Conditions: NF2 mutated cell line, 0.1-30 μM, FIG. 1
Method: (§1) The tumor cell growth inhibitory activity of the YAP-TEAD interaction inhibitors was evaluated in NCI-H2052 mesothelioma cell line harboring a NF2 mutation. This cell line was selected based on its mutational status and the ability of a siRNA directed against YAP, TAZ or TEAD1-4 to inhibit cell proliferation. The nuclear localization of YAP at confluence was also taken into account. Based on these observations we were able to classify several “YAP dependent cells” where YAP is clearly nuclear and in which a cell growth inhibition is observed by using siRNA (NCI-H2052, SKOV-3, ACHN, A549) and the “YAP independent cells” where YAP is preferentially located in the cytoplasm and in which no inhibition of cell growth is observed by using a siRNA (SW620, Met-5a). […] After one day growth in the starvation medium, cells were incubated with compounds. The starting concentration was 30 μM and serial dilutions in DMSO and medium were performed until 0.1 μM to achieve a final DMSO concentration of 0.5%. The cells were then allowed to grow for 3 days, and then, EdU (Invitrogen, Molecular Probe) was added in each well at a final concentration of 10 μM and the cells were returned to the incubator for additional 24 h. Starvation medium was removed and 100 μl of PFA 4% containing Hoechst dye was adding in each well to fix the cells. Plates were then incubated at rt for 15 minutes, washed twice with PBS and the cells were permeabilized by adding 100 μl per well of triton-100 containing 0.3% BSA. After 20 minutes cells were washed with PBS and the EdU detection was performed according to the instructions of the manufacturer. Image acquisition was performed using the ImageXpress Micro and analysed using the MetaXpress software (Molecular Device).
(§2) Results were expressed as a percent of inhibition (%) of the cell proliferation values obtained with 0.5% DMSO treatment alone. The cellular response was determined by fitting the concentration response curves using a 3 parameter curve fit equation and determining the concentration that inhibited cell growth between 50% and 100%.

| SMILES | NCI-H2052 mesothelioma cell proliferation |
| --- | --- |
| COc1cc(/C=N/N(C)C2=NS(=O)(=O)c3cc(B(O)O)ccc32)ccc1F [Ex 50, [3-[[(E)-(4-fluoro-3-methoxy-phenyl)methyleneamino]-methyl-amino]-1,1-dioxo-1,2-benzothiazol-6-yl]boronic acid] | inhibited NCI-H2052 mesothelioma cell proliferation |

Molecular target: T1, YAP-TEAD interaction (full length human TEAD1-Gal4 fusion, full length YAP mutant S127A, S397A) (UniProt P04386+P28347)
T1 construct: The TEAD1 construct was prepared by cloning the full length human TEAD1 cDNA; expressed in transfected cells; host or cells: HEK293 GripTite 293 MSR (Invitrogen R795-07), transiently transfected with pSG5_CMV plasmids
T1 sequence (P04386+P28347 fused, stated change not applied): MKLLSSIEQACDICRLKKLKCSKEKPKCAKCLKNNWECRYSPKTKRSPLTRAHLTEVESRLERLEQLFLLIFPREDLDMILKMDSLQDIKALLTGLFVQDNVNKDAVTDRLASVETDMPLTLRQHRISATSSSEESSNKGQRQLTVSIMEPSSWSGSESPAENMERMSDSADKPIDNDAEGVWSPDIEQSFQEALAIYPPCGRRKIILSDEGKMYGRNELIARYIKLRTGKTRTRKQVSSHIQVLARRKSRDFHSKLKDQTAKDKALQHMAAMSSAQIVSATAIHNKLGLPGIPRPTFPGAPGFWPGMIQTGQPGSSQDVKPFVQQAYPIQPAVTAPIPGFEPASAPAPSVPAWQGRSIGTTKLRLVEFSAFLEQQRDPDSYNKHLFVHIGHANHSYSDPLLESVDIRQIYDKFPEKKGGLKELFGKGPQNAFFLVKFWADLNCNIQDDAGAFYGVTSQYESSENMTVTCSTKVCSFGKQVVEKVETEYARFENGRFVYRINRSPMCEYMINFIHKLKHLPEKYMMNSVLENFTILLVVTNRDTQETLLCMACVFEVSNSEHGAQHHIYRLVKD
Assay: Cell-based TEAD-GAL4 transactivation assay (luciferase reporter, HEK293)
Conditions: HEK293 cells, compounds 0.1 μM to 30 μM, 24 h, concentration that inhibited the luciferase activity by 50%
Method: To identify inhibitors of YAP-TEAD interaction, a transient transactivation assays was carried out into HEK293 cell line (HEK293 GripTite™ 293 MSR (Invitrogen R795-07)) using plasmids containing the full length TEAD1 sequences, the full length YAP mutant (S127A, S397A) and a luciferase gene reporter. All expression constructs were performed into pSG5 backbone plasmid in which the SV40 promoter was replaced by the CMV promoter. The TEAD1 construct was prepared by cloning the full length human TEAD1 cDNA in fusion with the Gal4 DNA Binding Domain (AA 1-148) into pSG5_CMV to create the TEAD1(FL)_hum_pSG5Gal4_CMV. The full length YAP mutant (S127A, S397A) was also cloned into pSG_5 CMV to create the YAP(FL)_hum_pSG5_[…]. The reporter plasmid GAL4(5×RE)_[…]_pGL3-Basic contains 5 copies of the GAL4 responsive element (5′-TCGGAGGACAGTACTCC-3′) upstream of the thymidine kinase (TK) promoter (−105/+56) inserted in a pGL3-Basic vector. To evaluate the selectivity of our compounds in blocking the YAP-TEAD interaction, a counter-screening protein-protein interaction transactivation assays was also established. Briefly, two other expression plasmids, the pBD-P53 which express the P53 (AA 72-390) in fusion with Gal4 and the pAD-SV40T which express the SV40 large T antigen (AA 84-708,AgT), were created. HEK293 cells were seeded at 5×10^4 cells/well in 96 well plates (assay plates) in DMEM medium containing 4.5 g/L D-glucose, 10% high inactivated (HI) fetal bovine serum 1% Glutamax, 1% non-essential amino acid and 1% sodium pyruvate and 0.5% penicillin/streptomycin 37° C. in a humidified atmosphere of 8% CO2. After 24 h, transfections are performed using Jet-PEI as transfectant (101B-010 Polyplus Transfection), according to the instructions of the manufacturer (N/P=10) and a ratio YAP/TEAD=10 (per well: 50 ng of YAP(FL), 5 ng of TEAD(FL) and 50 ng of reporter plasmid). Six hours after cell transfection, the plates (‘assay plate’) were washed with 100 μl PBS per well and cell were treated with compounds in semi-log from 0.1 μM to 30 μM or DMSO 0.5% as control in DMEM 4.5 g/L D-Glucose without phenol red, 0.3% BSA, 1% glutamax, 1% NEAA, 1% sodium pyruvate. Twenty-four hours later, the luciferase activity was determined after addition of 100 μl of Steady Glo™ luciferase assay system (Promega E2550) according to the manufacturer's directions. Luciferase activity in cell extracts is measured by reading luminescence using the Envision device.
The cellular response was determined by fitting the concentration response curves using a 3-parameter curve fit equation and determining the concentration that inhibited the luciferase activity by 50%.

| SMILES | IC50 [µM] |
| --- | --- |
| COc1cc(/C=N/N(C)C2=NS(=O)(=O)c3cc(B(O)O)ccc32)ccc1F [Ex 50, [3-[[(E)-(4-fluoro-3-methoxy-phenyl)methyleneamino]-methyl-amino]-1,1-dioxo-1,2-benzothiazol-6-yl]boronic acid] | 3.03 |
| Cc1ncc(/C=N/N(C)C2=NS(=O)(=O)c3ccccc32)s1 [Ex 118, N-methyl-N-[(E)-(2-methylthiazol-5-yl)methyleneamino]-1,1-dioxo-1,2-benzothiazol-3-amine] | 3.97 |
| COCCOc1ccc2c(c1)C(N(C)/N=C/c1ccc(F)c(OC)c1)=NS2(=O)=O [Ex 56, N-[(E)-(4-fluoro-3-methoxy-phenyl)methyleneamino]-5-(2-methoxyethoxy)-N-methyl-1,1-dioxo-1,2-benzothiazol-3-amine] | 2.31 |
| COc1cc(/C=N/N(CC(C)C)C2=NS(=O)(=O)c3cc(OCB4OC(=O)CN(C)CC(=O)O4)ccc32)ccc1F [Ex 106, 2-[[3-[[(E)-(4-fluoro-3-methoxy-phenyl)methyleneamino]-isobutyl-amino]-1,1-dioxo-1,2-benzothiazol-6-yl]oxymethyl]-6-methyl-1,3,6,2-dioxaza-borocane-4,8-dione] | 0.94 |
| CCn1c(=O)[nH]c2ccc(/C=N/N(CC(C)C)C3=NS(=O)(=O)c4cc(B(O)O)ccc43)cc21 [Ex 84, [3-[[(E)-(3-ethyl-2-oxo-1H-benzimidazol-5-yl)methyleneamino]-isobutyl-amino]-1,1-dioxo-1,2-benzothiazol-6-yl]boronic acid] | 1.67 |
| CCCC(=O)OCn1c(=O)n(C2CCC2)c2cc(/C=N/N(C)C3=NS(=O)(=O)c4ccccc43)ccc21 [Ex 114, [3-cyclobutyl-5-[(E)-[(1,1-dioxo-1,2-benzothiazol-3-yl)-methyl-hydrazono]methyl]-2-oxo-benzimidazol-1-yl]methyl butanoate] | 4.95 |
| COc1cc(C2=NN(C3=NS(=O)(=O)c4cc(B(O)O)ccc43)C(C)CC2)ccc1F (centres unmarked) [Ex 109, [3-[6-(4-fluoro-3-methoxy-phenyl)-3-methyl-4,5-dihydro-3H-pyridazin-2-yl]-1,1-dioxo-1,2-benzothiazol-6-yl]boronic acid] | 0.7 |

Tested on: Met5A cell line
Assay: Cell proliferation in YAP-independent cell line (EdU)
Assay type: cell-based
Conditions: FIG. 1
Method: as §1, §2

| SMILES | effect on proliferation of Met5A cell line |
| --- | --- |
| COc1cc(/C=N/N(C)C2=NS(=O)(=O)c3cc(B(O)O)ccc32)ccc1F [Ex 50, [3-[[(E)-(4-fluoro-3-methoxy-phenyl)methyleneamino]-methyl-amino]-1,1-dioxo-1,2-benzothiazol-6-yl]boronic acid] | without showing any effect |

Tested on: not given
Assay: not given
Conditions: not given

| SMILES | melting point [°C] |
| --- | --- |
| CNC(=O)Cc1ccc(/C=N/N(C)C2=NS(=O)(=O)c3ccccc32)cc1OC [Ex 20, 2-[4-[(E)-[(1,1-dioxo-1,2-benzothiazol-3-yl)-methyl-hydrazono]methyl]-2-methoxy-phenyl]-N-methyl-acetamide] | 228 to 231 |
| COc1cc(/C=N/N(CCc2ccccc2)C2=NS(=O)(=O)c3ccccc32)ccc1F [Ex 46, N-[(E)-(4-fluoro-3-methoxy-phenyl)methyleneamino]-1,1-dioxo-N-(2-phenylethyl)-1,2-benzothiazol-3-amine] | 256 to 258 |
| CN(/N=C/c1ccc2c(c1)C(C)(C)C(=O)N2)C1=NS(=O)(=O)c2ccccc21 [Ex 33, 5-[(E)-[(1,1-dioxo-1,2-benzothiazol-3-yl)-methyl-hydrazono]methyl]-3,3-dimethyl-indolin-2-one] | > 300 |
| CN(/N=C/c1ccc(N2CCOCC2)cc1)C1=NS(=O)(=O)c2ccccc21 [Ex 3, N-methyl-N-[(E)-(4-morpholinophenyl)methyleneamino]-1,1-dioxo-1,2-benzothiazol-3-amine] | 258 to 261 |
| Cc1ncc(/C=N/N(C)C2=NS(=O)(=O)c3ccccc32)s1 [Ex 118, N-methyl-N-[(E)-(2-methylthiazol-5-yl)methyleneamino]-1,1-dioxo-1,2-benzothiazol-3-amine] | 248 |
| CC1NC(=O)c2ccc(/C=N/N(C)C3=NS(=O)(=O)c4ccccc43)cc21 (centres unmarked) [Ex 31, 5-[(E)-[(1,1-dioxo-1,2-benzothiazol-3-yl)-methyl-hydrazono]methyl]-3-methyl-isoindolin-1-one] | > 298 |
| CN(/N=C/c1ccc(F)c(OC(F)(F)F)c1)C1=NS(=O)(=O)c2ccccc21 [Ex 78, N-[(E)-[4-fluoro-3-(trifluoromethoxy)phenyl]methyleneamino]-N-methyl-1,1-dioxo-1,2-benzothiazol-3-amine] | 230 to 280 |
| COCCOc1ccc2c(c1)C(N(C)/N=C/c1ccc(F)c(OC)c1)=NS2(=O)=O [Ex 56, N-[(E)-(4-fluoro-3-methoxy-phenyl)methyleneamino]-5-(2-methoxyethoxy)-N-methyl-1,1-dioxo-1,2-benzothiazol-3-amine] | 200 |
| CN(/N=C/c1ccc2[nH]nnc2c1)C1=NS(=O)(=O)c2ccccc21 [Ex 35, N-[(E)-1H-benzotriazol-5-ylmethyleneamino]-N-methyl-1,1-dioxo-1,2-benzothiazol-3-amine] | 313 to 315 |
| CN(/N=C/c1ccc(F)c(Cl)n1)C1=NS(=O)(=O)c2ccccc21 [Ex 37, N-[(E)-(6-chloro-5-fluoro-2-pyridyl)methyleneamino]-N-methyl-1,1-dioxo-1,2-benzothiazol-3-amine] | 219 to 221 |
| COc1cc(/C=N/N(C)C2=NS(=O)(=O)c3cc(O)ccc32)ccc1F [Ex 51, 3-[[(E)-(4-fluoro-3-methoxy-phenyl)methyleneamino]-methyl-amino]-1,1-dioxo-1,2-benzothiazol-6-ol] | 258 |
| CN(/N=C/c1cnc(N2CCC2)s1)C1=NS(=O)(=O)c2ccccc21 [Ex 61, N-[(E)-[2-(azetidin-1-yl)thiazol-5-yl]methyleneamino]-N-methyl-1,1-dioxo-1,2-benzothiazol-3-amine] | 256 to 258 |
| CCN(/N=C/c1ccc2c(c1)C(C)(C)NC2=O)C1=NS(=O)(=O)c2ccccc21 [Ex 85, 5-[(E)-[(1,1-dioxo-1,2-benzothiazol-3-yl)-ethyl-hydrazono]methyl]-3,3-dimethyl-isoindolin-1-one] | 289 to 291 |
| CCC1(CC)C(=O)Nc2ccc(/C=N/N(C)C3=NS(=O)(=O)c4ccccc43)cc21 [Ex 34, 5-[(E)-[(1,1-dioxo-1,2-benzothiazol-3-yl)-methyl-hydrazono]methyl]-3,3-diethyl-indolin-2-one] | 288 to 289 |
| CN(/N=C/c1cnc(N2CCOCC2)s1)C1=NS(=O)(=O)c2ccccc21 [Ex 7, N-methyl-N-[(E)-(2-morpholinothiazol-5-yl)methyleneamino]-1,1-dioxo-1,2-benzothiazol-3-amine] | 281 to 300 |
| COc1cc(/C=N/N(CC(C)(C)CO)C2=NS(=O)(=O)c3ccccc32)ccc1F [Ex 108, 3-[(1,1-dioxo-1,2-benzothiazol-3-yl)-[(E)-(4-fluoro-3-methoxy-phenyl)methyleneamino]amino]-2,2-dimethyl-propan-1-ol] | 207 to 208 |
| CN(/N=C/c1ccc2c(c1)C(C)(C)NC2=O)C1=NS(=O)(=O)c2ccccc21 [Ex 32, 5-[(E)-[(1,1-dioxo-1,2-benzothiazol-3-yl)-methyl-hydrazono]methyl]-3,3-dimethyl-isoindolin-1-one] | > 295 |
